Measured values: patent US9309263B2, “Fused multi-cyclic sulfone compounds as inhibitors of beta-secretase and methods of use thereof” (AMGEN INC., priority 2013, dated 2016)
Read-outs that look alike come from different tables or passages of the source.

How the values were obtained:
Cathepsin D (Cat D) = Cathepsin D (Cat D) (Homo sapiens, UniProt P07339); experiment: In vitro enzymatic Cathepsin D (Cat D) FRET assay; assay type: biochemical
In short: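 FRET peptide substrate (20 nM) is cleaved by CHO-derived recombinant enzyme (9 nM) for 1 h after a 1 h inhibitor pre-incubation, at pH 3.5 in citrate buffer with 5 mM CHAPS and 10% DMSO. Tris addition ends the reaction; fluorescence measured at 500 nm excitation, 580 nm emission.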

[1] = tested on: Aβ 40 in conditioned medium of cells stably expressing Amyloid Precursor Protein (APP); experiment: In vitro BACE cell-based assay (Aβ 40 sandwich ELISA); details: Homo sapiens, HEK293
In short: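 Aβ40 in conditioned medium measured by pAb40/biotin-6E10 sandwich ELISA with time-resolved europium fluorescence, after 24 h exposure of stable APP cells to compounds (10-point series starting 100 μM or 10 μM; 0.1% DMSO). IC50 fitted from percent of control against concentration.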

[2] = target: Beta Secretase enzyme (BACE) (Homo sapiens, UniProt P56817); experiment: In vitro enzymatic BACE FRET assay; assay type: biochemical; details: read-out: BACE1 FRET assay IC50
In short: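 Cleavage of a quenched 50 nM FRET peptide substrate, read as fluorescence (excitation 488 nm, […]) after 1 h and Tris quench to neutrality. Buffer: 0.05 M acetate pH 4.2 with 10% DMSO and 100 uM genapol. Inhibitor dilutions were pre-incubated 1 h with 0.2 nM enzyme.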

[3] = text summary referring to data in Table 2
[4] = Cathepsin D FRET assay, read-out: CatD IC50
[5] = average IC50, HEK cell assay, Aβ 40 readout
[6] = average IC50, in vitro enzymatic BACE FRET assay

Chain of Beta Secretase enzyme (BACE) (P56817 46-501): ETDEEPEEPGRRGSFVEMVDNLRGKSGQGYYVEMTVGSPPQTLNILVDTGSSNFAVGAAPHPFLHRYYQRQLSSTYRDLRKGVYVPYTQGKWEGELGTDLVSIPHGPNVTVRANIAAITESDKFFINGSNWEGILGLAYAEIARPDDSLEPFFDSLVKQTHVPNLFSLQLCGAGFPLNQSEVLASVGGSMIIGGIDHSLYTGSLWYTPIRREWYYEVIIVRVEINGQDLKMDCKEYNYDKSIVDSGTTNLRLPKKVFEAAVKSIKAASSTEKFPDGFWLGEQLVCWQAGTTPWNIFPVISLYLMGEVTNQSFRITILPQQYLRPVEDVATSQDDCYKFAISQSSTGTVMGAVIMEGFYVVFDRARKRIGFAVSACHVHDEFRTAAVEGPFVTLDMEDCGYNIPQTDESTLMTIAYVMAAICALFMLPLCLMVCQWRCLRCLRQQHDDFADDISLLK
Chain of Cathepsin D (Cat D) (P07339 65-412, species assumed): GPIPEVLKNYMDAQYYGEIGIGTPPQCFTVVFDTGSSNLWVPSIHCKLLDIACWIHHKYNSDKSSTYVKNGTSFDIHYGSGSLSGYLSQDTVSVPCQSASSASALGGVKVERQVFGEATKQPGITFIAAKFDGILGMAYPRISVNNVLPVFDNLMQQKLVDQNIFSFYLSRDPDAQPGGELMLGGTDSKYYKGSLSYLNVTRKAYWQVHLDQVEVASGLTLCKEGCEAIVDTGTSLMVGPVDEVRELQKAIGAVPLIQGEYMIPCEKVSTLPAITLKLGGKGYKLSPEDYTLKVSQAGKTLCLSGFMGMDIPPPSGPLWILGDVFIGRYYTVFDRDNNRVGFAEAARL

Structure (SMILES)	IC50 (Cathepsin D (Cat D); read-out: CatD IC50)	IC50 (Cathepsin D (Cat D); [3])	IC50 ([1]; HEK cell, average IC50)	IC50 ([2]; average IC50)	IC50 ([1]; HEK cells, average IC50)	IC50 (Cathepsin D (Cat D); [4])	IC50 [1, 5]	IC50 [2, 6]
CCc1ccc(C(=O)Nc2ccc3c(c2)[C@@]2(C)N=C(N)C(C)(C)S(=O)(=O)[C@@H]2CCO3)nc1 [Example 29, N-((4aR,11bR)-2-amino-3,3,11b-trimethyl-4,4-dioxido-4a,5,6,11b-tetrahydro-3H-[1]benzoxepino[4,5-b][1,4]thiazin-10-yl)-5-ethyl-2-pyridinecarboxamide]	1370 µM	> 1200 µM	0.01 µM	0.038 µM	–	–	–	–
Cc1cc(C(F)F)cnc1C(=O)Nc1ccc2c(c1)[C@@]1(C)N=C(N)C(C)(C)S(=O)(=O)[C@@H]1CCO2 [Example 163, N-((4aR,11bR)-2-amino-3,3,11b-trimethyl-4,4-dioxido-4a,5,6,11b-tetrahydro-3H-[1]benzoxepino[4,5-b][1,4]thiazin-10-yl)-5-(difluoromethyl)-3-methyl-2-pyridinecarboxamide]	> 400 µM	–	–	0.005 µM	0.003 µM	–	–	–
Cc1cc(C(F)F)cnc1C(=O)Nc1ccc2c(c1)[C@@]1(C)N=C(N)C(C)(C)S(=O)(=O)[C@@H]1CCC2 [Example 40, N-((4aR,11bR)-2-amino-3,3,11b-trimethyl-4,4-dioxido-3,4a,5,6,7,11b-hexahydrobenzo[3,4]cyclohepta[1,2-b][1,4]thiazin-10-yl)-5-(difluoromethyl)-3-methyl-2-pyridinecarboxamide]	> 400 µM	–	0.015 µM	0.035 µM	–	–	–	–
Cc1cc(C(F)(F)F)cnc1C(=O)Nc1ccc2c(c1)[C@@]1(CF)N=C(N)C(C)(C)S(=O)(=O)[C@@H]1CCO2 [Example 119, N-((4aR,11bS)-2-amino-11b-(fluoromethyl)-3,3-dimethyl-4,4-dioxido-4a,5,6,11b-tetrahydro-3H-[1]benzoxepino[4,5-b][1,4]thiazin-10-yl)-3-methyl-5-(trifluoromethyl)-2-pyridinecarboxamide]	–	–	–	–	–	3360 µM	0.019 µM	0.024 µM
CC1(C)C(N)=N[C@]2(C)c3cc(Nc4nccc5cc(Cl)cnc45)cnc3OCC[C@H]2S1(=O)=O [Example 19, (4aR,11bR)-N^~10^~-(3-chloro-1,7-naphthyridin-8-yl)-3,3,11b-trimethyl-4a,5,6,11b-tetrahydro-3H-pyrido[3′,2′:6,7]oxepino[4,5-b][1,4]thiazine-2,10-diamine4,4-dioxide]	263 µM	–	0.019 µM	0.003 µM	–	–	–	–
CC#CCOc1cnc(C(=O)Nc2ccc3c(c2)[C@@]2(C)N=C(N)C(C)(C)S(=O)(=O)[C@H]2CC(C)(C)O3)cn1 [Example 102, N-((4aS,11bR)-2-amino-3,3,6,6,11b-pentamethyl-4,4-dioxido-4a,5,6,11b-tetrahydro-3H-[1]benzoxepino[4,5-b][1,4]thiazin-10-yl)-5-(2-butyn-1-yloxy)-2-pyrazinecarboxamide]	–	–	–	–	–	284 µM	0.002 µM	0.001 µM
CC1(C)C(N)=N[C@]2(C)c3cc(NC(=O)c4ncc(Cl)cc4Cl)ccc3OCC[C@H]2S1(=O)=O [Example 24, N-((4aR,11bR)-2-amino-3,3,11b-trimethyl-4,4-dioxido-4a,5,6,11b-tetrahydro-3H-[1]benzoxepino[4,5-b][1,4]thiazin-10-yl)-3,5-dichloro-2-pyridinecarboxamide]	969 µM	> 800 µM	0.001 µM	0.003 µM	–	–	–	–
C[C@H]1C[C@@H]2[C@](C)(N=C(N)C(C)(C)S2(=O)=O)c2cc(NC(=O)c3ncc(Cl)cc3CO)ccc2O1 [Example 130, N-((4aR,6S,11bR)-2-amino-3,3,6,11b-tetramethyl-4,4-dioxido-4a,5,6,11b-tetrahydro-3H-benzo[6,7]oxepino[4,5-b][1,4]thiazin-10-yl)-5-chloro-3-(hydroxymethyl)picolinamide]	–	–	–	–	–	44.8 µM	0.0008 µM	0.003 µM
